Earlier results on seven compounds are cited in patent US20250129429A1, “GENE FUSIONS IN SARCOMA” (Foundation Medicine, Inc., priority 2021, published 2025).

The structures appear in SMILES notation.

By IC50 is commonly meant the midpoint of a concentration-inhibition curve. For orientation: Kd means the concentration at which binding is half-saturated.

In one data set the target is TrkB (Homo sapiens, UniProt Q16620).
The target of the next data set is NGF dimer (Homo sapiens, UniProt P01138). The settings on record: binds the NGF dimer.
Data set [1] concerns NTRK1 fusion-positive tumors. The settings on record: patients with NTRK1 fusion-positive tumors.
Data set [2] concerns various solid tumors with NTRK fusions. The settings on record: monotherapy; adult and pediatric patients, with and without CNS metastases.
Data set [3] has as its system NTRK fusion-positive AML cell lines.
Another data set has as its target TrkA (Homo sapiens, UniProt P04629).
The subject of data set [4] is various solid tumors harboring NTRK fusions.

TrkA, sequence (P04629 33-796): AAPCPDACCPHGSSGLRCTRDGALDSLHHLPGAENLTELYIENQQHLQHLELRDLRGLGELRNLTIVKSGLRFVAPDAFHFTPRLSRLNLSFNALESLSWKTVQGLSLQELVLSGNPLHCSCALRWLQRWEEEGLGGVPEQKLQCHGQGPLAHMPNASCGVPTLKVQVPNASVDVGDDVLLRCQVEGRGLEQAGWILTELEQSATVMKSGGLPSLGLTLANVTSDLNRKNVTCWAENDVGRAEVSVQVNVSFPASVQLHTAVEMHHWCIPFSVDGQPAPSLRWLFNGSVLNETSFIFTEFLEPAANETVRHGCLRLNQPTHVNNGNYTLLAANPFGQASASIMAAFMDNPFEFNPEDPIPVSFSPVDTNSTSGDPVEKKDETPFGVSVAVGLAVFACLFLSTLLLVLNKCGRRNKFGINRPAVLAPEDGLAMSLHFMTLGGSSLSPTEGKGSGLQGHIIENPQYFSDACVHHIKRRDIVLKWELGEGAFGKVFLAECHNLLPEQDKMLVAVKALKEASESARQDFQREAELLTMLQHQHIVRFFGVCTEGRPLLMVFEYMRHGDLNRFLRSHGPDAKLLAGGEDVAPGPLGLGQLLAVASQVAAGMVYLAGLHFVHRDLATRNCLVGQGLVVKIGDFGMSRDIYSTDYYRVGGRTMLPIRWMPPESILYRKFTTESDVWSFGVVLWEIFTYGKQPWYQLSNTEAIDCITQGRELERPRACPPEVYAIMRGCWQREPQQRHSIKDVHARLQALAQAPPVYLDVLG
TrkB, sequence (Q16620 32-822, species assumed): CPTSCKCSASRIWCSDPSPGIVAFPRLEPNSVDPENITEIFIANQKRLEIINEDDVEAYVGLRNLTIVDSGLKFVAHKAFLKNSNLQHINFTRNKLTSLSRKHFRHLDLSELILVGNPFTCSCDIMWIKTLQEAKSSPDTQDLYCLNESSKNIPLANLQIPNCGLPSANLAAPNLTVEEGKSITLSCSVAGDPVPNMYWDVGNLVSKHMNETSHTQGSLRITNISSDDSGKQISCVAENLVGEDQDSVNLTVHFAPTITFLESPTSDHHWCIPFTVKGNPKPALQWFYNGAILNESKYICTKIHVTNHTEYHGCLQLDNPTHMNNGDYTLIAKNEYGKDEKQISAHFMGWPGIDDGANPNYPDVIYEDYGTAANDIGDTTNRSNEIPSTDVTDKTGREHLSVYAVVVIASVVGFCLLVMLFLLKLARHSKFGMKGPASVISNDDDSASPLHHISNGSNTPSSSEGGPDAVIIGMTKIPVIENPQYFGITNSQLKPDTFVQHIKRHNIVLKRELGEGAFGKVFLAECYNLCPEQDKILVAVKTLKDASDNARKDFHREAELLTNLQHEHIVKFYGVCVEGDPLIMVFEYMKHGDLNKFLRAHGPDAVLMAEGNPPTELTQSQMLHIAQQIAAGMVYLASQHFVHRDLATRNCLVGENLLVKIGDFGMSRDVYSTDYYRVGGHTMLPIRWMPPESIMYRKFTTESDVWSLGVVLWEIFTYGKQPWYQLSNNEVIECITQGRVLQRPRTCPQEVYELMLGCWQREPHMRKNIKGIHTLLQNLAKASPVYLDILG
NGF dimer, sequence (P01138 122-241): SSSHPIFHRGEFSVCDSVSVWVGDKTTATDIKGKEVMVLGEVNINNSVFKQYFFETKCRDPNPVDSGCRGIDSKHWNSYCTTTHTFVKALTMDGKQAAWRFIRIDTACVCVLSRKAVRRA

`CC(C)Oc1cc(Nc2nc(N[C@@H](C)c3ccc(F)cn3)ncc2Cl)n[nH]1` [AZ-23, 5-chloro-N-[(1S)-1-(5-fluoropyridin-2-yl)ethyl]-N′-(5-propan-2-yloxy-1H-pyrazol-3-yl)pyrimidine-2,4-diamine]: the concentration for half-maximal inhibition (IC50) on TrkB is 8 nM.
Take `Cc1cc2nc3c(=O)[nH]c(=O)nc-3n(C)c2cc1C=O` [Ro 08-2750]: the dissociation constant Kd on NGF dimer is ~1000 nM.
With `C[C@@H](Oc1cc(-c2cnn(C3CCNCC3)c2)cnc1N)c1c(Cl)ccc(F)c1Cl` [crizotinib], in data set [1], the clinical responses result is “Durable clinical responses”.
For `CN1CCN(c2ccc(C(=O)Nc3n[nH]c4ccc(Cc5cc(F)cc(F)c5)cc34)c(NC3CCOCC3)c2)CC1` [entrectinib, N-[5-(3,5-Difluorobenzyl)-1H-indazol-3-yl]-4-(4-methyl-1-piperazinyl)-2-(tetrahydro-2H-pyran-4-ylamino)benzamide], in data set [2], the clinical benefit entry is listed as “Clinical benefit with entrectinib monotherapy has been achieved”. Moreover, the preclinical sensitivity result in data set [3] was “preclinical sensitivity has been observed”.
With `NC(=O)Nc1snc(S[C@@H]2CCCCc3ccccc32)c1C(N)=O` [isothiazole 5n], the IC50 on TrkA was < 1 nM.
Consider `O=C(Nc1cnn2ccc(N3CCC[C@@H]3c3cc(F)ccc3F)nc12)N1CC[C@H](O)C1` [larotrectinib], for which, in data set [4] (adult and pediatric patients with solid tumors harboring NTRK fusions), the CR is 17 % of patients. The ORR in data set [4] (adult and pediatric patients with various solid tumors harboring NTRK fusions (88/109)) is 81%. The responses ongoing in data set [4] (at 12 months of treatment) is listed as 75-81 % of patients. Also, the intracranial efficacy entry in data set [4] (individuals with NTRK fusion-positive gliomas or brain metastases) was “has been demonstrated”.
As to `c1ccc2c(c1)[nH]c1c3cccnc3ccc21` [pyridocarbazole], at TrkA, the concentration for half-maximal inhibition (IC50) was 6 nM.
